Earlier results in patent US11692003B2, “Mithramycin derivatives having increased selectivity and anti-cancer activity” (University of Kentucky Research Foundation, priority 2018, dated 2023).

System: several cancer cell lines

CO[C@H](C(=O)C(C)=O)[C@@H]1Cc2cc3cc(OC4C[C@@H](OC5C[C@@H](O)[C@H](O)C(C)O5)[C@H](O)C(C)O4)c(C)c(O)c3c(O)c2C(=O)[C@H]1OC1C[C@@H](OC2C[C@@H](OC3C[C@](C)(O)[C@H](O)C(C)O3)[C@@H](O)C(C)O2)[C@H](O)C(C)O1 (some centres unmarked) [MTM SDK, mithramycin SDK]
activity against several cancer cell lines compared to the parent MTM: increased activity

CO[C@H](C(O)C(C)=O)[C@@H]1Cc2cc3cc(OC4C[C@@H](OC5C[C@@H](O)[C@H](O)C(C)O5)[C@H](O)C(C)O4)c(C)c(O)c3c(O)c2C(=O)[C@H]1OC1C[C@@H](OC2C[C@@H](OC3C[C@](C)(O)[C@H](O)C(C)O3)[C@@H](O)C(C)O2)[C@H](O)C(C)O1 (some centres unmarked) [MTM SK, Mithramycin SK]
activity against several cancer cell lines compared to the parent MTM: increased activity
